Assay results from patent US20130143738A1, “HERBICIDAL COMPOSITION CONTAINING CERTAIN PYRIDINE CARBOXYLIC ACIDS AND (2,4-DICHLOROPHENOXY)ACETIC ACID” (DOW AGROSCIENCES LLC, priority 2011, published 2013).
Where two headings read alike, the source gives them in different places.

Columns and labels:
[1] = tested on: PANDI - fall panicum (Panicum dichotomiflorum Michx.); test: Greenhouse evaluation of postemergence herbicidal activity, foliar treatment, PANDI; format: in vivo; settings: 16 DAA
Text: (§1) Seeds or nutlets of the desired test plant species were planted in a soil matrix prepared by mixing a sandy loam soil (28.6 percent silt, 18.8 percent clay, and 52.6 percent sand, with a pH of about 5.8 and an organic matter content of about 1.8 percent) and calcareous grit in an 80 to 20 ratio. The soil matrix was contained in plastic pots with a surface area of 84.6 cm^2 and a volume of 560 cubic centimeters (cm^3). When required to ensure good germination and healthy plants, a fungicide treatment and/or other chemical or physical treatment was applied. The plants were grown for 7-31 days (d) in a greenhouse with an approximate 15 hour (h) photoperiod which was maintained at about 23-29° C. during the day and 22-28° C. during the night. Nutrients (Peters Excel® 15-5-15 5-Ca2-Mg) and water were added on a regular basis and supplemental lighting was provided with overhead metal halide 1000-Watt lamps as necessary. The plants were employed for testing when they reached the first, second, or third true leaf stage.
Treatment requirements were calculated based upon the rates being tested, the concentration of active ingredient or acid equivalent in the formulation, and a 12 mL application volume at a rate of 187 L/ha.
(§2) Treatments consisted of the potassium (K^+) salt of 4-amino-3-chloro-6-(4-chloro-2-fluoro-3-methoxy-phenyl)pyridine-2-carboxylic acid formulated as an SL or the benzyl ester of 4-amino-3-chloro-6-(4-chloro-2-fluoro-3-methoxy-phenyl)pyridine-2-carboxylic acid as technical material, and 2,4-D dimethylamine (DMA) salt applied as Weedar® 64 EC alone and in combination. Forms of the pyridine carboxylic acid and 2,4-D were applied on an acid equivalent basis.
(§3) For treatments comprised of formulated compounds, measured amounts of compounds were placed individually in 25 mL glass vials and diluted in a volume of 1.5% (v/v) Agri-dex® crop oil concentrated to obtain 6× stock solutions. […] Application solutions were prepared by adding an appropriate amount of each stock solution (typically 2 mL) and diluted to the appropriate final concentrations with the addition of an appropriate amount of an aqueous mixture of 1.5% (v/v) crop oil concentrate and an appropriate amount of water so that the final spray solutions contained 1.25+/−0.05% (v/v) crop oil concentrate.
For treatments comprised of formulated and technical compounds, weighed amounts of the technical materials were placed individually in 25 mL glass vials and dissolved in a volume of 97:3 v/v acetone/DMSO to obtain 6× stock solutions, and measured amounts of the formulated compounds were placed individually in 25 mL glass vials and diluted in a volume of 1.5% (v/v) crop oil concentrate to obtain 6× stock solutions. […]

[2] = tested on: ELEIN - goosegrass (Eleusine indica (L.) Gaertn.); settings: 14 DAA, greenhouse, foliar
Method: as §1, with “When required to ensure good germination and healthy plants, a fungicide treatment and/or other chemical or physical treatment was applied.” left out
as §2, §3
(§4) For treatments comprised of formulated and technical compounds, weighed amounts of the technical materials were placed individually in 25 mL glass vials and dissolved in a volume of 97:3 v/v acetone/DMSO to obtain 6× stock solutions, and measured amounts of the formulated compounds were placed individually in 25 mL glass vials and diluted in a volume of 1.5% (v/v) crop oil concentrate to obtain 6× stock solutions. […] Application solutions were prepared by adding an appropriate amount of each stock solution (eg, 2 mL) and diluted to the appropriate final concentrations with the addition of an appropriate amount of an aqueous mixture of 1.5% (v/v) crop oil concentrate and an appropriate amount of water so that the final spray solutions contained 1.25% (v/v) crop oil concentrate. The final acetone and DMSO concentrations of the application solutions containing technical material were 16.2% and 0.5%, respectively.
(§5) All stock solutions and applications solutions were visually inspected for compound compatibility prior to application. Compound requirements are based upon a 12 mL application volume at a rate of 187 liters per hectare (L/ha). Application solutions were applied to the plant material with an overhead Mandel track sprayer equipped with 8002E nozzles calibrated to deliver 187 L/ha over an application area of 0.503 square meters (m^2) at a spray height of 18 to 20 inches above the average plant canopy height. Control plants were sprayed in the same manner with the solvent blank.
(§6) The treated plants and control plants were placed in a greenhouse as described above and watered by sub-irrigation to prevent wash-off of the test compounds. After approximately 2 weeks, the condition of the test plants as compared with that of the untreated plants was determined visually and scored on a scale of 0 to 100 percent where 0 corresponds to no injury and 100 corresponds to complete kill.

[3] = tested on: LOLMU - Italian ryegrass (Lolium perenne L. ssp. multiflorum (Lam.) Husnot); settings: 14 DAA, greenhouse, foliar
Method: as §1, with “When required to ensure good germination and healthy plants, a fungicide treatment and/or other chemical or physical treatment was applied.” left out
as §2, §3, §4, §5, §6

[4] = tested on: MEOPA - escoba blanca (Melochia parviflora); test: Field evaluation of postemergence herbicidal activity of mixtures in range and pasture (Colombia); format: in vivo; settings: 14 DAA
Method: Field trials were conducted in pastures in Colombia using standard herbicide small plot research methodology. Plot size was typical for small plot research, varying from 2 meters (m) wide by 6 m long. There were 4 replicates per treatment. Soil type ranged from medium to heavy soil texture. Perennial pastures were sown by hand direct dry seeding as per normal local cultural practices. The pastures were grown using normal cultural practices for fertilization and maintenance to ensure good growth of the pastures and the weeds.
Treatments were applied by backpack sprayer using either compressed air or carbon dioxide (CO2), at spray pressures from […]. Spray tips were typically Flat Fan Teejet nozzles, such as TJ8003. Spray volumes used were 400 liters per hectare (L/ha). MEOPA plant size at application varied from 70 to 80 centimeters (cm) tall active growth at flowering stage.
For each treatment, the appropriate formulated product amount to treat the plot area, to achieve the desired application rate, based on unit area of application (hectare), was calculated, measured, and mixed in water prior to applying with the backpack sprayer. Treatments were rated as compared to the untreated control plots. 2,4-D was used as Invesamina 480 SL®. Compound I was formulated as a 10% weight percent active ingredient (wt ai %—100 grams ai per L (g ai/L); 95.94 g ae/L) suspension concentrate (SC) of the corresponding methyl ester.
For both Example 1 and Example 2, the Colby equation was used to determine the herbicidal effects expected from the mixtures (Colby, S. R. Calculation of the synergistic and antagonistic response of herbicide combinations. Weeds 1967, 15, 20-22.).
The following equation was used to calculate the expected activity of mixtures containing two active ingredients, A and B:
A=observed efficacy of active ingredient A at the same concentration as used in the mixture.
B=observed efficacy of active ingredient B at the same concentration as used in the mixture.

[5] = 2,4-D dimethyl amine 52.5 g ae/ha alone
[6] = 2,4-D dimethyl amine 105 g ae/ha alone
[7] = potassium salt 3.75 g ae/ha alone

CNC.O=C(O)COc1ccc(Cl)cc1Cl [2,4-D (Dimethyl Amine), 2,4-D dimethylamine (DMA) salt]
PANDI (% Control) Obs [1, 5]: 0% | PANDI (% Control) Obs [1, 6]: 0% | PANDI (% Control) Obs ([1]; 2,4-D dimethyl amine 210 g ae/ha alone): 0% | ELEIN (% Control) Obs [2, 5]: 0% | ELEIN (% Control) Obs [2, 6]: 0% | LOLMU (% Control) Obs [3, 5]: 0% | LOLMU (% Control) Obs [3, 6]: 0%

COc1c(Cl)ccc(-c2cc(N)c(Cl)c(C(=O)OCc3ccccc3)n2)c1F [Pyridine Carboxylic Acid (Benzyl Ester), benzyl ester of 4-amino-3-chloro-6-(4-chloro-2-fluoro-3-methoxy-phenyl)pyridine-2-carboxylic acid]
ELEIN (% Control) Obs ([2]; benzyl ester 3.75 g ae/ha alone): 0% | ELEIN (% Control) Obs ([2]; benzyl ester 7.5 g ae/ha alone): 25%

COc1c(Cl)ccc(-c2cc(N)c(Cl)c(C(=O)[O-])n2)c1F.[K+] [potassium (K^+) salt of 4-amino-3-chloro-6-(4-chloro-2-fluoro-3-methoxy-phenyl)pyridine-2-carboxylic acid]
PANDI (% Control) Obs [1, 7]: 75% | LOLMU (% Control) Obs [3, 7]: 15% | LOLMU (% Control) Obs ([3]; potassium salt 7.5 g ae/ha alone): 35%

O=C(O)COc1ccc(Cl)cc1Cl [2,4-D, (2,4-dichlorophenoxy)acetic acid]
MEOPA (% Control) Obs ([4]; 2,4-D 480 g ae/ha alone): 3.8%

COC(=O)c1nc(-c2ccc(Cl)c(OC)c2F)cc(N)c1Cl [Pyridine Carboxylic Acid (Methyl Ester), halauxifen-methyl]
MEOPA (% Control) Obs ([4]; methyl ester 17.5 g ae/ha alone): 48.5% | MEOPA (% Control) Obs ([4]; methyl ester 35 g ae/ha alone): 63.1%
